{"source": "patent US20240141020A1", "about": "“METHOD FOR MODULATING AFUCOSLYATION OF AN ANTIBODY PRODUCT” (LONZA BEND INC., priority 2021, published 2024)", "test_system": "CHO GS-KO cells", "assay": "Modulation of afucosylation of a model IgG antibody produced by CHO GS-KO cells in supplemented culture medium (shake flasks, 5 days, LC-MS glycan profile)", "type": "cell-based, Chinese hamster", "details": "for Average % Afucosylation: mAb harvested day 5, G0/(G0F+G0), n = 3 technical replicates, control 5.21%", "experimental": "CHO GS-KO cells were cultured in chemically defined culture medium supplemented with different chemicals at different concentrations to test the impact of those chemicals on the N-linked glycan profile of the product produced by the cultures. The product produced by this cell line was a model IgG antibody. • 1. Prepare culture media with supplemented chemicals • 2. Culture cells in media from (1) • 3. Harvest mAb produced in cultures and measure glycan profile of purified, reduced, and de-salted mAb products • 4. Determine statistical impact of chemical supplements on glycan product quality The chemicals that were supplemented to the medium included: • None (Control) • Mannose • N-Acetylmannosamine (ManNAc)+Galactose Concentrated stock solutions of mannose, ManNAc, and galactose were prepared and added into culture media. Specific volumes of the stock solution was supplemented to the culture media to generate the conditions in Table 1: GS-KO cells were inoculated at a density of 2×10^5 cells/mL into vented shake flasks containing medium from Table 1. Cultures were grown for five days in a temperature, CO2, and humidity-controlled incubator. Daily samples were taken to monitor the culture health. mAb product was harvested from day 5 shake flask cultures and purified through Protein A capture. Purified mAb was prepared for glycan analysis by reducing mAb to separate heavy and light chains. Reduced mAb was injected onto an LC-MS where the reduced mAb was de-salted by passing through a reverse-phase de-salting column on the LC prior to injection into a time of flight mass spectrometer (TOF MS) (Agilent 6230B). Three injections per sample was performed for technical replicates. Protein Metrics Software was used to process the resulting LC-MS data and the relative abundance of each glycan species was reported. The glycan species measured in processing included: G0, G0F, G1F, G2F, G1F+NeuAc, […]+NeuAc, […]+2NeuAc. Percent afucosulated mAb was calculated by dividing the total amount of afucosylated species by the sum of afucosylate and fucosylated species (G0/[…]+G0).", "data": [{"smiles": "CC(=O)N[C@@H]1C(O)O[C@H](CO)[C@@H](O)[C@@H]1O", "note": "(stereo partly drawn) [ManNAc, N-Acetylmannosamine]", "values": [{"measurement": "afucosylation compared to control (in words)", "setting": "higher concentration of ManNAc (10 uM), with 1 mM galactose", "result": "decreasing afucosylation slightly"}]}, {"smiles": "O=C[C@@H](O)[C@@H](O)[C@H](O)[C@H](O)CO", "note": "[Mannose, mannose]", "values": [{"measurement": "Average % Afucosylation", "setting": "culture medium + 1 g/L Mannose", "result": 5.63, "unit": "%"}, {"measurement": "Average % Afucosylation", "setting": "culture medium + 3 g/L Mannose", "result": 6.10, "unit": "%"}, {"measurement": "Average % Afucosylation", "setting": "culture medium + 6 g/L Mannose", "result": 7.27, "unit": "%"}, {"measurement": "high mannose species of the antibody product (in words)", "setting": "mannose in amounts greater than about 1 g/L", "result": "does not appear to result in an increase in high mannose species"}, {"measurement": "% afucosylated mAb compared to control (in words)", "setting": "supplementation of culture medium with mannose, 1, 3, 6 g/L", "result": "significantly increased"}]}]}
